Measured values from patent US11708357B2, “Crystal form of pyrrolidinyl urea derivative and application thereof” (ZHANGZHOU PIEN TZE HUANG PHARMACEUTICAL CO., LTD., priority 2020, dated 2023).

How the values were obtained:
CYP2C19 = biological target: T1, CYP2C19 (Homo sapiens, UniProt P33261); assay: Cytochrome P450 isozyme inhibitory activity test, CYP2C19; type: in vitro ADME; details: liver microsomes; human liver microsome
T1 construct: from tissue; host or cells: human liver microsomes
Experimental: (§1) The inhibitory activities of the test compound on different subtypes of human cytochrome P450 isozymes were determined. The test compound, standard inhibitor (100× final concentration), and a mixed substrate working solution were prepared; the microsome frozen in −80° C. refrigerator was thawed. […]

TrkA = biological target: T2, TrkA (Homo sapiens, UniProt P04629); assay: TrkA enzyme activity test (HTRF); type: biochemical; details: 0.5 nM TrkA kinase, 90 μM ATP, 23° C. 90 minutes
T2 construct: purchased Invitrogen PV4114
Experimental: TK detection kit Cisbio-62TK0PEJ
50 mM Hepes (pH 7.5), 5 mM MgCl2 (magnesium chloride), 0.01 mM orthovanadate (sodium vanadate), 1% BSA (bovine serum albumin), 1 mM (dithiothreitol)
This experiment used Cisbio's homogeneous time-resolved fluorescence resonance energy transfer (HTRF® method) for activity test. In the test plate, the enzyme, biotin-labeled peptide substrate, ATP, and test compound were mixed, and incubated for reaction. After the reaction, ethylenediaminetetraacetic acid was added to terminate the reaction; at the same time, Eu-labeled antibody and streptavidin-labeled XL665 were added for reaction and detection. The data were expressed by the readings of the fluorescence signal at 665 nm and 620 nm, where a high ratio of 665 nm/620 nm indicated higher activity, and a low ratio of 665 nm/620 nm indicated inhibition of activity.
1. […]
2. […] 10 μL of stop solution containing 20 mM EDTA, 1.34 nM phosphorylated substrate antibody, and 100 nM streptavidin-labeled fluorescent molecule XL-665 was then added, incubated at 23° C. for 60 minutes; the signal was read with Envision;
3. The inhibition rate of the compound was calculated from the data read by the instrument, and the IC50 value was calculated using the mode 205 in XLFIT5 of IDBS.

[1] = Metabolic stability in human liver microsomes; type: in vitro ADME; details: pH 7.4, 0.5 mg protein/mL, read-out: Intrinsic clearance rate of liver microsomes, Human
Experimental: The metabolic stability of the test compound in human and rat liver microsomes was tested.
Test compound (10 mM), Testosterone (reference compound, 10 mM), Diclofenac (reference compound, 10 mM) and Propafenone (reference compound, 10 mM).
1. 100 mM potassium phosphate buffer (pH 7.4).
1. Intermediate solution: 45 μL of DMSO (with 450 μL of 1:1 methanol/water) was used to dilute 5 μL of the sample for test compound or reference compound.
2. Working solution: 450 μL of 100 mM potassium phosphate buffer was used to dilute the intermediate solution.
10 μL of the working solution of the test compound or reference compound was added to all plates (T0, T5, T10, T20, T30, T60, and NCF60).
680 μL of liver microsome solution was added to each well of 96-well plates, then 80 μL was added to each well of the plates, and the plates were placed at 37° C. for pre-incubation for approximately 10 minutes.
10 μL of 100 mM potassium phosphate buffer was added to each well of the NCF60 plate.
After the pre-incubation, 90 μL NADPH regeneration system working solution was added to each well of the 96-well plates, and then 10 μL was added to each well of the plates to initiate the reaction.
Incubation for an appropriate time (such as 5, 10, 20, 30, and 60 minutes). […]
The half-life T1/2 and the intrinsic clearance rate by liver microsome Clint(mic) were calculated by the following formulas: Ct=Cij·e^−k^s^·i • when […]

CYP3A4 = biological target: T3, CYP3A4 (Homo sapiens, UniProt P08684); assay: Cytochrome P450 isozyme inhibitory activity test, CYP3A4; type: in vitro ADME; details: liver microsomes; human liver microsome
T3 construct: from tissue; host or cells: human liver microsomes
Experimental: as §1

T1 sequence (P33261 whole entry): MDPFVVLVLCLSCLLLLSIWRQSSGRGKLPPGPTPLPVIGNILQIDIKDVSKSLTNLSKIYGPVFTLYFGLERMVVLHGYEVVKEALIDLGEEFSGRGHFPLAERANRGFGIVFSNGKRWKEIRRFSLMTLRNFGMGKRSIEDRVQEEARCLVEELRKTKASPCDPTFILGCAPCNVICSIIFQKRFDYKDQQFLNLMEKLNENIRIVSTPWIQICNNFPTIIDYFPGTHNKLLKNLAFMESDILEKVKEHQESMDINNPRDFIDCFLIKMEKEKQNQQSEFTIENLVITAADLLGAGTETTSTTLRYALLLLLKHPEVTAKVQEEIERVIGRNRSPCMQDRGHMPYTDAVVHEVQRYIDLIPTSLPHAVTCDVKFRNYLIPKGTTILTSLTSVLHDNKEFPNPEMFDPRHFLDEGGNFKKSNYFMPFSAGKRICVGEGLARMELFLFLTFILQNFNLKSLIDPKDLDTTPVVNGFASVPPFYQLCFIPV
T2 sequence (P04629 33-796): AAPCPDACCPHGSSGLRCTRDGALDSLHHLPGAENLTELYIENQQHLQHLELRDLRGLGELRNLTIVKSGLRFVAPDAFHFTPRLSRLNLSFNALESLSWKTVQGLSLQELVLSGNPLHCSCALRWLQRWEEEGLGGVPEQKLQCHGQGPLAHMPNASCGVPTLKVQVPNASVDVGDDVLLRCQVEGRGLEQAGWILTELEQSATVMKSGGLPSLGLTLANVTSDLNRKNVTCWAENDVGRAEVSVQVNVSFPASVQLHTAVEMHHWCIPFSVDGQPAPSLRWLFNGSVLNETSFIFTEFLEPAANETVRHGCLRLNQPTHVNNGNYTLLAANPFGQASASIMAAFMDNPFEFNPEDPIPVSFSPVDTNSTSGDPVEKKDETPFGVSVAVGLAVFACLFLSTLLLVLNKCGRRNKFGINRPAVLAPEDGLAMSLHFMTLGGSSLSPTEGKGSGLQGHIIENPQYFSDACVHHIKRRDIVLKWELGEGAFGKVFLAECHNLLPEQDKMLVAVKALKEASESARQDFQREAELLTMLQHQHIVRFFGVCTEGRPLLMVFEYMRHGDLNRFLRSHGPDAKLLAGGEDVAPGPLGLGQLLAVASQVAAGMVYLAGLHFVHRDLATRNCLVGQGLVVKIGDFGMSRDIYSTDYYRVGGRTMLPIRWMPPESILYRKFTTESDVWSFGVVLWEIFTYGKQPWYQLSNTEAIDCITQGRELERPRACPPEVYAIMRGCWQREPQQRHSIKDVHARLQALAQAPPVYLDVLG
T3 sequence (P08684 whole entry): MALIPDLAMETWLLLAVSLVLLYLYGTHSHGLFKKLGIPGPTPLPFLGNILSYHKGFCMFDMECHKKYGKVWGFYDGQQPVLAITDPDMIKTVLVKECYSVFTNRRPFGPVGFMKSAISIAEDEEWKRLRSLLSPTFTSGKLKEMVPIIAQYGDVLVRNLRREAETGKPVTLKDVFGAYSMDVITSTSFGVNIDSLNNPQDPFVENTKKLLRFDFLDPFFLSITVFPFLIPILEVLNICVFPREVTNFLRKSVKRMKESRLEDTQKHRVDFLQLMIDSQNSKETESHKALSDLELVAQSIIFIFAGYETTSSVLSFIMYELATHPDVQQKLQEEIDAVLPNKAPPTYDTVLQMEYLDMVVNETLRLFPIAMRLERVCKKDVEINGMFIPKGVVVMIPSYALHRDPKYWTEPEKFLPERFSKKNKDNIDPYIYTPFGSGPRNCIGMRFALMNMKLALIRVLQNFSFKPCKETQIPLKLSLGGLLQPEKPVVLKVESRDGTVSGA

SMILES: COCCN1C[C@@H](n2ccc(F)c2)[C@H](NC(=O)Nc2c(C)c(-c3cnc(C4(F)COC4)nc3)nn2-c2ccccc2)C1 [Compound of formula (I)]
- IC50 at 10 min (CYP2C19): > 50 µM
- IC50 (TrkA): 0.00056 µM
- CLint scaled [1]: 51.7 mL/min/kg
- IC50 at 10 min (CYP3A4): > 50 µM
